Laboratory results reported in patent US11026991B2, “Compositions and methods of use thereof to promote muscle growth and function” (Worlds Greatest Ingredients, LP, priority 2018, dated 2021).
Read-outs that look alike come from different tables or passages of the source.

Conditions: in vivo; for Plasma Isoleucine Concentrations After Ingestion / Plasma Leucine Concentrations After Ingestion / Plasma Lysine Concentrations After Ingestion / Plasma Methionine Concentrations After Ingestion / Plasma Phenylalanine Concentrations After Ingestion / Plasma Threonine Concentrations After Ingestion / Plasma Tryptophan Concentrations After Ingestion / Plasma Valine Concentrations After Ingestion / Total Plasma BCAA Concentrations After Ingestion / Total Plasma EAA Concentrations After Ingestion / Plasma Leucine Delta Change Relative to Baseline Values / Plasma Leucine Percent Change Relative to Baseline Values / relative increase in plasma leucine from Pre / elevation in plasma leucine relative to baseline, times greater than the other condition: male, human
Procedure: The subject came into the laboratory fasted prior to the testing days. […] On Day 1, they were randomized to consume 1 of the 2 conditions. Following, consumption of the fluid mixture (8 oz. water), plasma amino acids were measured at 30, 60, 90, and 120 minutes. A 72-hour washout took place followed by the 2nd condition following the same procedures.
The dosage used in this study was either 2 grams of di-leucine (condition Ce) or 2 grams of leucine (condition C4).

With `CC(C)C[C@H](N)C(=O)O` [Condition C4, leucine] the “increase in plasma lysine, times greater than the other condition” value was 19 ×, the “increases in total EAA concentration relative to baseline (range)” value was 9.4% to 16.3% and the “plasma phenylalanine change relative to Pre values (range)” value was −16.0% to −3.5%. The “Plasma Isoleucine Concentrations After Ingestion” value was 45.75 nmol/L, the “Plasma Leucine Concentrations After Ingestion” value was 92.25 nmol/L and the “Plasma Lysine Concentrations After Ingestion” value was 121.19 nmol/L. For the same compound, the “Plasma Methionine Concentrations After Ingestion” value was 18.77 nmol/L, the “Plasma Phenylalanine Concentrations After Ingestion” value was 48.61 nmol/L and the “Plasma Threonine Concentrations After Ingestion” value was 87.38 nmol/L. For the same compound, the “Plasma Tryptophan Concentrations After Ingestion” value was 45.00 nmol/L, the “Plasma Valine Concentrations After Ingestion” value was 230.43 nmol/L and the “Total Plasma BCAA Concentrations After Ingestion” value was 368.43 nmol/L. The “Total Plasma EAA Concentrations After Ingestion” value was 689.38 nmol/L, the “Plasma Isoleucine Concentrations After Ingestion” value (30 min) was 34.44 nmol/L and the “Plasma Leucine Concentrations After Ingestion” value (30 min) was 198.33 nmol/L. The “Plasma Leucine Delta Change Relative to Baseline Values” (30 min) was 106.09 nmol/L, the “Plasma Leucine Percent Change Relative to Baseline Values” (30 min) was 115.0% and the “Plasma Lysine Concentrations After Ingestion” value (30 min) was 135.48 nmol/L. The “Plasma Methionine Concentrations After Ingestion” value (30 min) was 16.61 nmol/L, the “Plasma Phenylalanine Concentrations After Ingestion” value (30 min) was 42.44 nmol/L and the “Plasma Threonine Concentrations After Ingestion” value (30 min) was 76.42 nmol/L. For the same compound, the “Plasma Tryptophan Concentrations After Ingestion” value (30 min) was 40.12 nmol/L, the “Plasma Valine Concentrations After Ingestion” value (30 min) was 210.39 nmol/L and the “Total Plasma BCAA Concentrations After Ingestion” value (30 min) was 443.16 nmol/L. For the same compound, the “Total Plasma EAA Concentrations After Ingestion” value (30 min) was 754.23 nmol/L, the “relative increase in plasma leucine from Pre” value (30 min) was 106.09 nmol/mL and the “Plasma Isoleucine Concentrations After Ingestion” value (60 min) was 33.30 nmol/L. For the same compound, the “Plasma Leucine Concentrations After Ingestion” value (60 min) was 146.70 nmol/L, the “Plasma Leucine Delta Change Relative to Baseline Values” (60 min) was 54.45 nmol/L and the “Plasma Leucine Percent Change Relative to Baseline Values” (60 min) was 59.0%. The “Plasma Lysine Concentrations After Ingestion” value (60 min) was 128.45 nmol/L, the “Plasma Methionine Concentrations After Ingestion” value (60 min) was 15.94 nmol/L and the “Plasma Phenylalanine Concentrations After Ingestion” value (60 min) was 40.84 nmol/L. The “Plasma Threonine Concentrations After Ingestion” value (60 min) was 75.83 nmol/L, the “Plasma Tryptophan Concentrations After Ingestion” value (60 min) was 43.54 nmol/L and the “Plasma Valine Concentrations After Ingestion” value (60 min) was 200.61 nmol/L. The “Total Plasma BCAA Concentrations After Ingestion” value (60 min) was 380.61 nmol/L, the “Total Plasma EAA Concentrations After Ingestion” value (60 min) was 685.20 nmol/L and the “relative increase in plasma leucine from Pre” value (60 min) was 54.45 nmol/mL. For the same compound, the “Plasma Isoleucine Concentrations After Ingestion” value (90 min) was 40.37 nmol/L, the “Plasma Leucine Concentrations After Ingestion” value (90 min) was 181.67 nmol/L and the “Plasma Leucine Delta Change Relative to Baseline Values” (90 min) was 89.42 nmol/L. For the same compound, the “Plasma Leucine Percent Change Relative to Baseline Values” (90 min) was 96.9%, the “Plasma Lysine Concentrations After Ingestion” value (90 min) was 134.15 nmol/L and the “Plasma Methionine Concentrations After Ingestion” value (90 min) was 19.30 nmol/L. The “Plasma Phenylalanine Concentrations After Ingestion” value (90 min) was 46.94 nmol/L, the “Plasma Threonine Concentrations After Ingestion” value (90 min) was 91.05 nmol/L and the “Plasma Tryptophan Concentrations After Ingestion” value (90 min) was 46.58 nmol/L. For the same compound, the “Plasma Valine Concentrations After Ingestion” value (90 min) was 225.20 nmol/L, the “Total Plasma BCAA Concentrations After Ingestion” value (90 min) was 447.24 nmol/L and the “Total Plasma EAA Concentrations After Ingestion” value (90 min) was 785.26 nmol/L. For the same compound, the “elevation in plasma leucine relative to baseline, times greater than the other condition” value (90 min) was 2.6 ×, the “Plasma Isoleucine Concentrations After Ingestion” value (120 min) was 36.47 nmol/L and the “Plasma Leucine Concentrations After Ingestion” value (120 min) was 158.84 nmol/L. For the same compound, the “Plasma Leucine Delta Change Relative to Baseline Values” (120 min) was 66.59 nmol/L, the “Plasma Leucine Percent Change Relative to Baseline Values” (120 min) was 72.2% and the “Plasma Lysine Concentrations After Ingestion” value (120 min) was 171.18 nmol/L. For the same compound, the “Plasma Methionine Concentrations After Ingestion” value (120 min) was 19.19 nmol/L, the “Plasma Phenylalanine Concentrations After Ingestion” value (120 min) was 45.40 nmol/L and the “Plasma Threonine Concentrations After Ingestion” value (120 min) was 90.94 nmol/L. For the same compound, the “Plasma Tryptophan Concentrations After Ingestion” value (120 min) was 44.81 nmol/L, the “Plasma Valine Concentrations After Ingestion” value (120 min) was 234.78 nmol/L and the “Total Plasma BCAA Concentrations After Ingestion” value (120 min) was 430.08 nmol/L. For the same compound, the “Total Plasma EAA Concentrations After Ingestion” value (120 min) was 801.61 nmol/L and the “elevation in plasma leucine relative to baseline, times greater than the other condition” value (120 min) was 1.5 ×.
